Laboratory results as given in ChEMBL document CHEMBL1157984, “Tsugicoline E, a new polyoxygenated protoilludane sesquiterpene from the fungus laurilia tsugicola1” (J Nat Prod, 1999).
The source made the active and inactive calls.

Experiments:
Type in all cases: functional, organism-based
[1] = test system: Bacillus subtilis; assay: Antimicrobial activity against Bacillus subtilis at 100 ug/disk
[2] = test system: Saccharomyces cerevisiae; assay: Antimicrobial activity against Saccharomyces cerevisiae at 100 ug/disk
[3] = test system: Bacillus cereus; assay: Antimicrobial activity against Bacillus cereus at 100 ug/disk

Measured: Activity

CC1(C)C[C@H]2[C@H](O)[C@]3(O)CO[C@]4(O)[C@@H](O)[C@@](C)([C@H]34)[C@H]2C1
inactive: all assays above
